Data reported in US9179694B2, “Method and composition for enhancing milk production and milk component concentrations” (PURINA ANIMAL NUTRITION LLC, priority 2003, dated 2015).

Test: Milk production (as is basis) in sorbitol feeding trials
Type: in vivo, Holstein cows
Procedure: Each cow of each of the six different trials (Control Trial #1, Control Trial #2, Pre-Partum Trial #1, Pre-Partum Trial #2, Pre/Post Trial #1, and Pre/Post Trial #2) was milked three times daily and the weight of produced milk by each cow was recorded at each milking. The milk from each cow was sampled once per week (⅓ of the sample volume from each of the three milkings occurring on the weekly milk sampling day) and was analyzed for true protein, total fat, lactose, and total solids, as detailed in the property determination and characterization techniques presented above. Additionally, samples of blood were periodically obtained from each cow during the four trials (Control Trial 2, Pre-Partum Trial #2, Pre/Post Trial #1, and Pre/Post Trial #2) encompassed in Example Two and were analyzed for non-esterified fatty acid (NEFA) content as detailed in the property determination and characterization techniques presented above. No NEFA analysis was conducted on the cows employed in Control Trial #1 or Pre-Partum Trial #1 that are the subject of Example One. Example One includes Control Trial #1 and Pre-Partum Trial #1. Both primiparious cows and multiparious cows were included in Control Trial #1 and Pre-Partum Trial #1. Five primiparious cows and fifteen multiparious cows were included in Control Trial #1; likewise, five primiparious cows and fifteen multiparious cows were included in Pre-Partum Trial #1. All cows included in Control Trial #1 and Pre-Partum Trial #1 were Holsteins. Example Two includes Control Trial #2, Pre-Partum Trial #2, Pre/Post Trial #1, and Pre/Post Trial #2. Only multiparious, Holstein cows were included in Control Trial #2, Pre-Partum Trial #1, Pre/Post Trial #1, and Pre/Post Trial #2. Eighteen multiparious cows were included in both Control Trial #2 and Pre-Partum Trial #2, while sixteen multiparious cows were included in Pre/Post Trial #1 and seventeen multiparious cows were included in Pre/Post Trial #2.

## OC[C@@H](O)[C@@H](O)[C@H](O)[C@@H](O)CO [sorbitol]
Pre-Partum Trial #1 (75/0/0 g/day in wk −3..−1/+1..+4/+5..+8), multiparious cows, weeks +1 through +8
  Milk Production (As Is Basis): 99.9 lbs/day
Pre-Partum Trial #1 (75/0/0 g/day in wk −3..−1/+1..+4/+5..+8), primiparious cows, weeks +1 through +8
  Milk Production (As Is Basis): 71.7 lbs/day
Pre-Partum Trial #1 (75 g/day wk −3..−1 only) versus Control Trial #1, multiparious cows, weeks +1 through +8
  increase in milk production: 9.2%
Pre-Partum Trial #2 (75/0/100 g/day in wk −3..−1/+1..+4/+5..+8), multiparious cows, week +1
  Milk Production (As Is Basis): 62.8 lbs/day
Pre-Partum Trial #2 (75/0/100 g/day in wk −3..−1/+1..+4/+5..+8), multiparious cows, week +2
  Milk Production (As Is Basis): 92.6 lbs/day
Pre-Partum Trial #2 (75/0/100 g/day in wk −3..−1/+1..+4/+5..+8), multiparious cows, week +3
  Milk Production (As Is Basis): 102 lbs/day
Pre-Partum Trial #2 (75/0/100 g/day in wk −3..−1/+1..+4/+5..+8), multiparious cows, week +4
  Milk Production (As Is Basis): 111 lbs/day
Pre-Partum Trial #2 (75/0/100 g/day in wk −3..−1/+1..+4/+5..+8), multiparious cows, week +5
  Milk Production (As Is Basis): 115 lbs/day
Pre-Partum Trial #2 (75/0/100 g/day in wk −3..−1/+1..+4/+5..+8), multiparious cows, week +6
  Milk Production (As Is Basis): 115 lbs/day
Pre-Partum Trial #2 (75/0/100 g/day in wk −3..−1/+1..+4/+5..+8), multiparious cows, week +7
  Milk Production (As Is Basis): 115 lbs/day
Pre-Partum Trial #2 (75/0/100 g/day in wk −3..−1/+1..+4/+5..+8), multiparious cows, week +8
  Milk Production (As Is Basis): 111 lbs/day
Pre-Partum Trial #2 (75/0/100 g/day in wk −3..−1/+1..+4/+5..+8), multiparious cows, weeks +1 through +4
  Milk Production (As Is Basis): 92.0 lbs/day
Pre-Partum Trial #2 (75/0/100 g/day in wk −3..−1/+1..+4/+5..+8), multiparious cows, weeks +1 through +8
  Milk Production (As Is Basis): 103 lbs/day
Pre-Partum Trial #2 (75/0/100 g/day in wk −3..−1/+1..+4/+5..+8), multiparious cows, weeks +5 through +8
  Milk Production (As Is Basis): 115 lbs/day
Pre/Post Trial #1 (150/125/100 g/day in wk −3..−1/+1..+4/+5..+8), multiparious cows, week +1
  Milk Production (As Is Basis): 67.9 lbs/day
Pre/Post Trial #1 (150/125/100 g/day in wk −3..−1/+1..+4/+5..+8), multiparious cows, week +1, two-trial comparison with Control Trial #2 (Table 23)
  Milk Production (As Is Basis): 68.4 lbs/day
Pre/Post Trial #1 (150/125/100 g/day in wk −3..−1/+1..+4/+5..+8), multiparious cows, week +2
  Milk Production (As Is Basis): 93.8 lbs/day
Pre/Post Trial #1 (150/125/100 g/day in wk −3..−1/+1..+4/+5..+8), multiparious cows, week +2, two-trial comparison with Control Trial #2 (Table 23)
  Milk Production (As Is Basis): 93.9 lbs/day
Pre/Post Trial #1 (150/125/100 g/day in wk −3..−1/+1..+4/+5..+8), multiparious cows, week +3
  Milk Production (As Is Basis): 104 lbs/day
Pre/Post Trial #1 (150/125/100 g/day in wk −3..−1/+1..+4/+5..+8), multiparious cows, week +3, two-trial comparison with Control Trial #2 (Table 23)
  Milk Production (As Is Basis): 104 lbs/day
Pre/Post Trial #1 (150/125/100 g/day in wk −3..−1/+1..+4/+5..+8), multiparious cows, week +4
  Milk Production (As Is Basis): 109 lbs/day
Pre/Post Trial #1 (150/125/100 g/day in wk −3..−1/+1..+4/+5..+8), multiparious cows, week +4, two-trial comparison with Control Trial #2 (Table 23)
  Milk Production (As Is Basis): 109 lbs/day
Pre/Post Trial #1 (150/125/100 g/day in wk −3..−1/+1..+4/+5..+8), multiparious cows, week +5
  Milk Production (As Is Basis): 113 lbs/day
Pre/Post Trial #1 (150/125/100 g/day in wk −3..−1/+1..+4/+5..+8), multiparious cows, week +5, two-trial comparison with Control Trial #2 (Table 23)
  Milk Production (As Is Basis): 113 lbs/day
Pre/Post Trial #1 (150/125/100 g/day in wk −3..−1/+1..+4/+5..+8), multiparious cows, week +6
  Milk Production (As Is Basis): 113 lbs/day
Pre/Post Trial #1 (150/125/100 g/day in wk −3..−1/+1..+4/+5..+8), multiparious cows, week +6, two-trial comparison with Control Trial #2 (Table 23)
  Milk Production (As Is Basis): 113 lbs/day
Pre/Post Trial #1 (150/125/100 g/day in wk −3..−1/+1..+4/+5..+8), multiparious cows, week +7
  Milk Production (As Is Basis): 112 lbs/day
Pre/Post Trial #1 (150/125/100 g/day in wk −3..−1/+1..+4/+5..+8), multiparious cows, week +7, two-trial comparison with Control Trial #2 (Table 23)
  Milk Production (As Is Basis): 112 lbs/day
Pre/Post Trial #1 (150/125/100 g/day in wk −3..−1/+1..+4/+5..+8), multiparious cows, week +8
  Milk Production (As Is Basis): 114 lbs/day
Pre/Post Trial #1 (150/125/100 g/day in wk −3..−1/+1..+4/+5..+8), multiparious cows, week +8, two-trial comparison with Control Trial #2 (Table 23)
  Milk Production (As Is Basis): 115 lbs/day
Pre/Post Trial #1 (150/125/100 g/day in wk −3..−1/+1..+4/+5..+8), multiparious cows, weeks +1 through +4
  Milk Production (As Is Basis): 93.6 lbs/day
Pre/Post Trial #1 (150/125/100 g/day in wk −3..−1/+1..+4/+5..+8), multiparious cows, weeks +1 through +4, two-trial comparison with Control Trial #2 (Table 23)
  Milk Production (As Is Basis): 94.1 lbs/day
Pre/Post Trial #1 (150/125/100 g/day in wk −3..−1/+1..+4/+5..+8), multiparious cows, weeks +1 through +8
  Milk Production (As Is Basis): 103 lbs/day
Pre/Post Trial #1 (150/125/100 g/day in wk −3..−1/+1..+4/+5..+8), multiparious cows, weeks +1 through +8, two-trial comparison with Control Trial #2 (Table 23)
  Milk Production (As Is Basis): 104 lbs/day
Pre/Post Trial #1 (150/125/100 g/day in wk −3..−1/+1..+4/+5..+8), multiparious cows, weeks +5 through +8
  Milk Production (As Is Basis): 113 lbs/day
Pre/Post Trial #1 (150/125/100 g/day in wk −3..−1/+1..+4/+5..+8), multiparious cows, weeks +5 through +8, two-trial comparison with Control Trial #2 (Table 23)
  Milk Production (As Is Basis): 113 lbs/day
Pre/Post Trial #2 (75/75/100 g/day in wk −3..−1/+1..+4/+5..+8), multiparious cows, week +1
  Milk Production (As Is Basis): 66.4 lbs/day
Pre/Post Trial #2 (75/75/100 g/day in wk −3..−1/+1..+4/+5..+8), multiparious cows, week +2
  Milk Production (As Is Basis): 92.8 lbs/day
Pre/Post Trial #2 (75/75/100 g/day in wk −3..−1/+1..+4/+5..+8), multiparious cows, week +3
  Milk Production (As Is Basis): 102 lbs/day
Pre/Post Trial #2 (75/75/100 g/day in wk −3..−1/+1..+4/+5..+8), multiparious cows, week +4
  Milk Production (As Is Basis): 108 lbs/day
Pre/Post Trial #2 (75/75/100 g/day in wk −3..−1/+1..+4/+5..+8), multiparious cows, week +5
  Milk Production (As Is Basis): 113 lbs/day
Pre/Post Trial #2 (75/75/100 g/day in wk −3..−1/+1..+4/+5..+8), multiparious cows, week +6
  Milk Production (As Is Basis): 113 lbs/day
Pre/Post Trial #2 (75/75/100 g/day in wk −3..−1/+1..+4/+5..+8), multiparious cows, week +7
  Milk Production (As Is Basis): 110 lbs/day
Pre/Post Trial #2 (75/75/100 g/day in wk −3..−1/+1..+4/+5..+8), multiparious cows, week +8
  Milk Production (As Is Basis): 108 lbs/day
Pre/Post Trial #2 (75/75/100 g/day in wk −3..−1/+1..+4/+5..+8), multiparious cows, weeks +1 through +4
  Milk Production (As Is Basis): 91.7 lbs/day
Pre/Post Trial #2 (75/75/100 g/day in wk −3..−1/+1..+4/+5..+8), multiparious cows, weeks +1 through +8
  Milk Production (As Is Basis): 102 lbs/day
Pre/Post Trial #2 (75/75/100 g/day in wk −3..−1/+1..+4/+5..+8), multiparious cows, weeks +5 through +8
  Milk Production (As Is Basis): 111 lbs/day
